For seven molecules, Activity results are on record in ChEMBL document CHEMBL3244035, “Synthesis and hypoglycemic activity of 4-substituted 3-mercaptopicolinic acids” (J Med Chem, 1977).

The source made the active and inactive calls. The rule behind the calls is not given here.

The assay has as its system Rattus norvegicus. Briefly: Hypoglycemic activity in 48 hrs fasted rat assessed as reduction in blood glucose at 150 mg/kg, po measured 1 to 4 hrs post challenge. In kind it is functional, organism-based. Details: dose 150 mg/kg.
`Nc1ccnc(C(=O)O)c1S`: the outcome was inactive.
Regarding `O=C(O)c1nccc(Cl)c1S`, the outcome was inactive.
`COc1ccnc(C(=O)O)c1S`: the outcome was inactive.
The same measure for `CSc1ccnc(C(=O)O)c1S`: “inactive”.
On to `CCc1ccnc(C(=O)O)c1S`, for which the outcome was inactive.
For `O=C(O)c1nccc(S)c1S`, the outcome was inactive.
As for `O=C(O)c1nccc(Oc2ccccc2)c1S`, the outcome was inactive.
